The values below come from patent publication US20200315176A1, “FUNGICIDAL COMPOSITIONS” (SYNGENTA PARTICIPATIONS AG, priority 2017, published 2020).

In one data set the test system is Phakopsora pachrhizi. The data set can be described thus: Example A3: fungicidal activity against Phakopsora pachrhizi / soybean / leaf disc preventative (Asian soybean rust). It is filed as in vivo. The settings on record: Phakopsora pachyrhizi, foliar, 200 ppm in the applied formulation, soybean leaf disks, read-out: disease control. The procedure: (§1) Leaf disks or leaf segments of various plant species are cut from plants grown in a greenhouse. The cut leaf disks or segments are placed in multiwell plates (24-well format) onto water agar. The leaf disks are sprayed with a test solution before (preventative) or after (curative) inoculation. Compounds to be tested are prepared as DMSO solutions (max. 10 mg/mL) which are diluted to the appropriate concentration with 0.025% Tween20 just before spraying. The inoculated leaf disks or segments are incubated under defined conditions (temperature, relative humidity, light, etc.) according to the respective test system. A single evaluation of disease level is carried out 3 to 14 days after inoculation, depending on the pathosystem. Percent disease control relative to the untreated check leaf disks or segments is then calculated.
Soybean leaf disks are placed on water agar in multiwell plates (24-well format) and sprayed with the formulated test compound diluted in water. One day after application leaf discs are inoculated by spraying a spore suspension on the lower leaf surface. After an incubation period in a climate cabinet of 24-36 hours in darkness at 20° C. and 75% rh leaf disc are kept at 20° C. with 12 h light/day and 75% rh. The activity of a compound is assessed as percent disease control compared to untreated when an appropriate level of disease damage appears in untreated check leaf disks (12 to 14 days after application).

Data set [1] relates to Puccinia recondita f. sp. tritici. The data set can be described thus: Example A2: fungicidal activity against Puccinia recondita f. sp. tritici / wheat / leaf disc curative (brown rust). It is filed as in vivo. The conditions noted are these: foliar, 24 h, 200 ppm in the applied formulation, curative (applied 1 day after inoculation), wheat leaf segments, read-out: disease control. As to the method:
as §1
Wheat leaf segments cv. Kanzler are placed on agar in multiwell plates (24-well format). The leaf segments are then inoculated with a spore suspension of the fungus. Plates were stored in darkness at 19° C. and 75% relative humidity. The formulated test compound diluted in water was applied 1 day after inoculation. The leaf segments were incubated at 19° C. and 75% relative humidity under a light regime of 12 hours light/12 hours darkness in a climate cabinet and the activity of a compound was assessed as percent disease control compared to untreated when an appropriate level of disease damage appears in untreated check leaf segments (6 to 8 days after application).

Data set [2] has the same test system. The experiment in a line: Example A1: fungicidal activity against Puccinia recondita f. sp. tritici / wheat / leaf disc preventative (brown rust). The conditions noted are these: foliar, 200 ppm in the applied formulation, wheat leaf segments, compared to untreated, read-out: disease control. Format: in vivo. The procedure:
as §1
Wheat leaf segments cv. Kanzler were placed on agar in multiwell plates (24-well format) and sprayed with the formulated test compound diluted in water. The leaf disks were inoculated with a spore suspension of the fungus 1 day after application. The inoculated leaf segments were incubated at 19° C. and 75% relative humidity (rh) under a light regime of 12 hours light/12 hours darkness in a climate cabinet and the activity of a compound was assessed as percent disease control compared to untreated when an appropriate level of disease damage appears in untreated check leaf segments (7 to 9 days after application).

The test system of data set [3] is Glomerella lagenarium (Colletotrichum lagenarium). The data set can be described thus: Example A4: fungicidal activity against Glomerella lagenarium (Colletotrichum lagenarium) liquid culture / cucumber / preventative (anthracnose). Format: cell-based. The conditions noted are these: Colletotrichum orbiculare, 20 ppm in the applied formulation, growth measured photometrically 3 to 4 days after application, read-out: disease control. The procedure: Mycelia fragments or conidia suspensions of a fungus prepared either freshly from liquid cultures of the fungus or from cryogenic storage, are directly mixed into nutrient broth. DMSO solutions of the test compound (max. 10 mg/mL) are diluted with 0.025% Tween20 by a factor of 50 and 10 μL of this solution is pipetted into a microtiter plate (96-well format). The nutrient broth containing the fungal spores/mycelia fragments is then added to give an end concentration of the tested compound. The test plates are incubated in the dark at 24° C. and 96% relative humidity. The inhibition of fungal growth is determined photometrically after 2 to 7 days, depending on the pathosystem, and percent antifungal activity relative to the untreated check is calculated. Conidia of the fungus from cryogenic storage are directly mixed into nutrient broth (PDB—potato dextrose broth). After placing a (DMSO) solution of test compound into a microtiter plate (96-well format), the nutrient broth containing the fungal spores is added.

Structures are written as SMILES.

Regarding `CON=Cc1cnn(Cc2ccc(-c3noc(C(F)(F)F)n3)cc2)c1` [X.20, N-methoxy-1-[1-[[4-[5-(trifluoromethyl)-1,2,4-oxadiazol-3-yl]phenyl]methyl]pyrazol-4-yl]methanimine], the pest or weed control at 200 ppm (in the data set on Phakopsora pachrhizi; in data set [1]; in data set [2]) was at least 80% throughout. Further, in data set [3], the inhibition of growth at 20 ppm is at least 80%.

Take `CCNC(=O)c1cnn(Cc2ccc(-c3noc(C(F)(F)F)n3)cc2)c1` [X.18, N-ethyl-1-[[4-[5-(trifluoromethyl)-1,2,4-oxadiazol-3-yl]phenyl]methyl]pyrazole-4-carboxamide]: the melting point was 166 to 176 °C. Besides, the pest or weed control at 200 ppm in the data set with Phakopsora pachrhizi was at least 80%. The pest or weed control at 200 ppm in data set [1] is at least 80%. Also, the pest or weed control at 200 ppm in data set [2] was at least 80%. Also, in data set [3], the inhibition of growth at 20 ppm was at least 80%.

Consider `N#Cc1ncnn1Cc1ccc(-c2noc(C(F)(F)F)n2)cc1` [X.02, 2-[[4-[5-(trifluoromethyl)-1,2,4-oxadiazol-3-yl]phenyl]methyl]-1,2,4-triazole-3-carbonitrile], for which the pest or weed control at 200 ppm (with Phakopsora pachrhizi; in data set [1]; in data set [2]) was at least 80% each time. Further, the inhibition of growth at 20 ppm in data set [3] is at least 80%.

Consider `CCCOC(=O)c1cnn(Cc2ccc(-c3noc(C(F)(F)F)n3)cc2)c1` [X.16, propyl 1-[[4-[5-(trifluoromethyl)-1,2,4-oxadiazol-3-yl]phenyl]methyl]pyrazole-4-carboxylate], for which the melting point lay within 105 to 115 °C. Also, the pest or weed control at 200 ppm in the data set with Phakopsora pachrhizi was at least 80%. Also, the pest or weed control at 200 ppm in data set [1] is at least 80%. In addition, the pest or weed control at 200 ppm in data set [2] is at least 80%. Further, the inhibition of growth at 20 ppm in data set [3] was at least 80%.

With `CCOC(=O)c1cnn(C(C)c2ccc(-c3noc(C(F)(F)F)n3)cc2)c1` (stereo not shown) [X.21, ethyl 1-[1-[4-[5-(trifluoromethyl)-1,2,4-oxadiazol-3-yl]phenyl]ethyl]pyrazole-4-carboxylate], the pest or weed control at 200 ppm (with Phakopsora pachrhizi; in data set [1]; in data set [2]) was at least 80% in each case. In addition, the inhibition of growth at 20 ppm in data set [3] was at least 80%.

Compound `CON(C)C(=O)c1cnn(Cc2ccc(-c3noc(C(F)(F)F)n3)cc2)c1` [X.15, N-methoxy-N-methyl-1-[[4-[5-(trifluoromethyl)-1,2,4-oxadiazol-3-yl]phenyl]methyl]pyrazole-4-carboxamide] yielded a melting point of 102 to 112 °C. Moreover, the pest or weed control at 200 ppm in the data set with Phakopsora pachrhizi is at least 80%. Further, the pest or weed control at 200 ppm in data set [1] is at least 80%. Moreover, the pest or weed control at 200 ppm in data set [2] was at least 80%. Further, the inhibition of growth at 20 ppm in data set [3] was at least 80%.

`FC(F)(F)c1nc(-c2ccc(Cn3nnc4ncccc43)cc2)no1` [X.09, 3-[4-(triazolo[4,5-b]pyridin-1-ylmethyl)phenyl]-5-(trifluoromethyl)-1,2,4-oxadiazole]: the pest or weed control at 200 ppm (with Phakopsora pachrhizi; in data set [1]; in data set [2]) was at least 80% throughout. Besides, the inhibition of growth at 20 ppm in data set [3] was at least 80%.

In the case of `CONC(=O)c1cnn(Cc2ccc(-c3noc(C(F)(F)F)n3)cc2)c1` [X.17, N-methoxy-1-[[4-[5-(trifluoromethyl)-1,2,4-oxadiazol-3-yl]phenyl]methyl]pyrazole-4-carboxamide], the melting point was 128 to 138 °C. In addition, in the data set with Phakopsora pachrhizi, the pest or weed control at 200 ppm is at least 80%. Besides, in data set [1], the pest or weed control at 200 ppm is at least 80%. In addition, in data set [2], the pest or weed control at 200 ppm was at least 80%. The inhibition of growth at 20 ppm in data set [3] was at least 80%.

With `CN(C)C(=O)c1cnn(Cc2ccc(-c3noc(C(F)(F)F)n3)cc2)c1` [X.05, N,N-dimethyl-1-[[4-[5-(trifluoromethyl)-1,2,4-oxadiazol-3-yl]phenyl]methyl]pyrazole-4-carboxamide], the melting point lay in the range of 124 to 129 °C. For the same compound, the pest or weed control at 200 ppm in the data set on Phakopsora pachrhizi is at least 80%. In addition, the pest or weed control at 200 ppm in data set [1] was at least 80%. For the same compound, in data set [2], the pest or weed control at 200 ppm is at least 80%. The inhibition of growth at 20 ppm in data set [3] was at least 80%.

For the compound `CNC(=O)c1cnn(Cc2ccc(-c3noc(C(F)(F)F)n3)cc2)c1` [X.06, N-methyl-1-[[4-[5-(trifluoromethyl)-1,2,4-oxadiazol-3-yl]phenyl]methyl]pyrazole-4-carboxamide], the melting point fell in the range of 156 to 161 °C. The pest or weed control at 200 ppm with Phakopsora pachrhizi was at least 80%. In addition, the pest or weed control at 200 ppm in data set [1] is at least 80%. Further, in data set [2], the pest or weed control at 200 ppm was at least 80%. Moreover, the inhibition of growth at 20 ppm in data set [3] was at least 80%.

`FC(F)(F)c1ncn(Cc2ccc(-c3noc(C(F)(F)F)n3)cc2)n1` [X.01, 5-(trifluoromethyl)-3-[4-[[3-(trifluoromethyl)-1,2,4-triazol-1-yl]methyl]phenyl]-1,2,4-oxadiazole] came in with a melting point of 68.2 to 70.1 °C. Besides, the pest or weed control at 200 ppm in the data set on Phakopsora pachrhizi was at least 80%. The pest or weed control at 200 ppm in data set [1] is at least 80%. Moreover, in data set [2], the pest or weed control at 200 ppm was at least 80%. Moreover, in data set [3], the inhibition of growth at 20 ppm is at least 80%.

On to `CN(C)c1ncn(Cc2ccc(-c3noc(C(F)(F)F)n3)cc2)n1` [X.07, N,N-dimethyl-1-[[4-[5-(trifluoromethyl)-1,2,4-oxadiazol-3-yl]phenyl]methyl]-1,2,4-triazol-3-amine], for which the pest or weed control at 200 ppm (in the data set on Phakopsora pachrhizi; in data set [1]; in data set [2]) was at least 80% each time. Moreover, in data set [3], the inhibition of growth at 20 ppm is at least 80%.

In the case of `NC(=O)c1cnn(Cc2ccc(-c3noc(C(F)(F)F)n3)cc2)c1` [X.19, 1-[[4-[5-(trifluoromethyl)-1,2,4-oxadiazol-3-yl]phenyl]methyl]pyrazole-4-carboxamide], the pest or weed control at 200 ppm (with Phakopsora pachrhizi; in data set [1]; in data set [2]) was at least 80% each time. Besides, in data set [3], the inhibition of growth at 20 ppm was at least 80%.

For `FC(F)(F)c1nc(-c2ccc(Cn3nc4cccnc4n3)cc2)no1` [X.10, 3-[4-(triazolo[4,5-b]pyridin-2-ylmethyl)phenyl]-5-(trifluoromethyl)-1,2,4-oxadiazole], the melting point lay in the range of 121 to 122 °C. Moreover, in the data set on Phakopsora pachrhizi, the pest or weed control at 200 ppm is at least 80%. Besides, the pest or weed control at 200 ppm in data set [1] is at least 80%. In addition, the pest or weed control at 200 ppm in data set [2] is at least 80%. Moreover, the inhibition of growth at 20 ppm in data set [3] was at least 80%.

`CCOC(=O)c1cnn(Cc2ccc(-c3noc(C(F)(F)F)n3)c(F)c2)c1` [X.13, ethyl 1-[[3-fluoro-4-[5-(trifluoromethyl)-1,2,4-oxadiazol-3-yl]phenyl]methyl]pyrazole-4-carboxylate] came in with a melting point of 131 to 135 °C. Also, the pest or weed control at 200 ppm in the data set with Phakopsora pachrhizi is at least 80%. Further, the pest or weed control at 200 ppm in data set [2] was at least 80%. In addition, the inhibition of growth at 20 ppm in data set [3] is at least 80%.

In the case of `CCSc1ncnn1Cc1ccc(-c2noc(C(F)(F)F)n2)cc1` [X.08, 3-[4-[(5-ethylsulfanyl-1,2,4-triazol-1-yl)methyl]phenyl]-5-(trifluoromethyl)-1,2,4-oxadiazole], the pest or weed control at 200 ppm (with Phakopsora pachrhizi; in data set [1]; in data set [2]) was at least 80% throughout. In addition, the inhibition of growth at 20 ppm in data set [3] is at least 80%.

In the case of `CCOC(=O)c1cnn(Cc2ccc(-c3noc(C(F)(F)F)n3)cc2)c1` [X.03, ethyl 1-[[4-[5-(trifluoromethyl)-1,2,4-oxadiazol-3-yl]phenyl]methyl]pyrazole-4-carboxylate], the pest or weed control at 200 ppm (in the data set on Phakopsora pachrhizi; in data set [1]; in data set [2]) was at least 80% throughout. The inhibition of growth at 20 ppm in data set [3] is at least 80%.

Broadly, the melting point is the temperature, or range, at which the solid turns liquid.
